Patent publication US20240141017A1, “FLUORESCENT BIOSENSORS AND METHODS OF USE FOR DETECTING CELL SIGNALING EVENTS” (THE REGENTS OF THE UNIVERSITY OF MICHIGAN, priority 2021, published 2024)

How the values were obtained:
M-SPOTIT2 = format: cell-based; conditions: pH 11
K-SPOTIT1.0 = target: T1, K-SPOTIT1.0 (Homo sapiens, UniProt P41145); format: cell-based
T1 construct: expressed in transfected cells; host or cells: HEK293T (lentiviral infection)

MOR = MOR (Homo sapiens, UniProt P35372); conditions: previous studies; cited from earlier work
[1] = target: kappa-opioid receptor (KOR) as in K-SPOTIT1.0 (Homo sapiens (Human)) (UniProt P41145); test: cell-based or functional assay

T1 sequence (P41145 with tags, fused parts or gaps): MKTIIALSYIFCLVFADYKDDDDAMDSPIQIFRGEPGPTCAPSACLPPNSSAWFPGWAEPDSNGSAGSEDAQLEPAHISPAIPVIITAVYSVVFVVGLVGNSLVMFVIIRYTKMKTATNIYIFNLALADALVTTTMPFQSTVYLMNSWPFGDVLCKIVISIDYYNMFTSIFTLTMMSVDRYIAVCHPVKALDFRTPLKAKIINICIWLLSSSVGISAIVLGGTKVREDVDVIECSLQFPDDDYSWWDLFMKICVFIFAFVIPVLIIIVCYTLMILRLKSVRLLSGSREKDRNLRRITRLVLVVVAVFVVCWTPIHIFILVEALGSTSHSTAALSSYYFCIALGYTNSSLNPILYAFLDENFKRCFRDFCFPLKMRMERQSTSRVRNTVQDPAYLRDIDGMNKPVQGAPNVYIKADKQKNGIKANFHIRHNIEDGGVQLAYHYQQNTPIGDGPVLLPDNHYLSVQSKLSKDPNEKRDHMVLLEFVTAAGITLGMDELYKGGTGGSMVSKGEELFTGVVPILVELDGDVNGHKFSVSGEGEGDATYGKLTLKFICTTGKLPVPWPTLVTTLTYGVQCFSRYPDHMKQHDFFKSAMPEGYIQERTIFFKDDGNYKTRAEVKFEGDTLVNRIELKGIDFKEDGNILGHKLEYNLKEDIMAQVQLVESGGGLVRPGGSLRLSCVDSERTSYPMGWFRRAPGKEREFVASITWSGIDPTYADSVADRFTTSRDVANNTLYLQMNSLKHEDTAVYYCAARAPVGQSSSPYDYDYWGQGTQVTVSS
MOR, sequence (P35372 whole entry): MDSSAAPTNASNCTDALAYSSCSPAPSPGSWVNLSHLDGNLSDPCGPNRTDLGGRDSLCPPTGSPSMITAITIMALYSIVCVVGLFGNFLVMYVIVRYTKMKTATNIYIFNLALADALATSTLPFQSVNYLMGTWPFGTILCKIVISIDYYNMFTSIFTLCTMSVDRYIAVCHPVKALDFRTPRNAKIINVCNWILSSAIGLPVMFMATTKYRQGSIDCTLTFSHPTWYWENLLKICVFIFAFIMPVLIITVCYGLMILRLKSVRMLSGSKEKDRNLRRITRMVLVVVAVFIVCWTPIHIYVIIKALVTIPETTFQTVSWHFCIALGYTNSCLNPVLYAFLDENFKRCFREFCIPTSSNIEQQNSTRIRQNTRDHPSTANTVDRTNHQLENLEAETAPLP

Molecule: CN(C)C(=O)C(CCN1CCC(O)(c2ccc(Cl)cc2)CC1)(c1ccccc1)c1ccccc1 [loperamide]
- SNR (M-SPOTIT2): highest SNR

Molecule: COC(=O)[C@@H]1C[C@H](OC(C)=O)C(=O)[C@H]2[C@@]1(C)CC[C@H]1C(=O)O[C@H](c3ccoc3)C[C@]21C [Sal A, Salvinorin A]
- SNR (M-SPOTIT2): much lower SNR

Molecule: C=CCN1CC[C@]23c4c5ccc(O)c4O[C@H]2C(=O)CC[C@@]3(O)[C@H]1C5 [naloxone]
- SNR (M-SPOTIT2): much lower SNR

Molecule: O=C(Cc1ccc(Cl)c(Cl)c1)N1CCCCC1CN1CCCC1 (stereo not drawn) [BRL52537]
- SNR (M-SPOTIT2): much lower SNR

Molecule: CN1CC[C@]23c4c5ccc(O)c4O[C@H]2[C@@H](O)C=C[C@H]3[C@H]1C5 [morphine]
- SNR (M-SPOTIT2): highest SNR

Molecule: Oc1ccc2c3c1O[C@H]1c4[nH]c5c(c4C[C@@]4(O)[C@@H](C2)N(CC2CC2)CC[C@]314)C[C@@]1(O)[C@H]2Cc3ccc(O)c4c3[C@@]1(CCN2CC1CC1)[C@H]5O4 [Nor-BNI, nor-binaltorphimine]
- fluorescence before and after addition of KOR antagonist post fluorophore maturation (K-SPOTIT1.0): Comparable fluorescence
- fluorescence increase when antagonist added after initial 30-second agonist stimulation, vs Nor-BNI only cells (K-SPOTIT1.0): No significant fluorescence increase

Molecule: COc1ccc2c3c1O[C@H]1C(=O)CC[C@@]4(O)[C@@H](C2)N(C)CC[C@]314 [oxycodone]
- SNR (M-SPOTIT2): highest SNR

Molecule: CC(C)C[C@@H](NC(=O)[C@H](Cc1ccccc1)NC(=O)CNC(=O)[C@@H](C)NC(=O)[C@@H](N)Cc1ccc(O)cc1)C(=O)O [DADLE]
- affinity for MOR (MOR): weak affinity

B1: Gαi protein mimic nanobody 39 (Nb39) (VHH)
VHH: QVQLVESGGGLVRPGGSLRLSCVDSERTSYPMGWFRRAPGKEREFVASITWSGIDPTYADSVADRFTTSRDVANNTLYLQMNSLKHEDTAVYYCAARAPVGQSSSPYDYDYWGQGTQVTVSS
- cpGFP fluorescence of K-SPOTIT1.0 after a 30-second pulse of Sal A, then 24 hours of incubation [1]: 4.2 fold
- cpGFP fluorescence of K-SPOTIT1.0 after longer Sal A incubation [1]: 12 fold
- cpGFP fluorescence of K-SPOTIT1.0 in HEK293T cells, 24 hours with 10 µM Salvinorin A against no Sal A [1]: 10.9 fold
